Results taken from PubChem BioAssay (NCI).
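The compound was tested at five concentrations on cells cultured in 96-well plates, with a 48-hour exposure period. GI50 marks 50% less growth. TGI marks complete inhibition of growth.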

What was measured:
Test in all cases: inhibition of tumour cell growth, NCI panel, 48 h; in the data active means GI50 below about 0.43 µM; inactive means the rest
SK-OV-3 ovarian = test system: SK-OV-3 ovarian
CCRF-CEM leukemia = test system: CCRF-CEM leukemia
HT29 colon = test system: HT29 colon
A498 renal = test system: A498 renal
MDA-MB-231 breast = test system: MDA-MB-231 breast
UO-31 renal = test system: UO-31 renal
UACC-257 melanoma = test system: UACC-257 melanoma
COLO 205 colon = test system: COLO 205 colon
A549 NSCLC = test system: A549 NSCLC
NCI-H23 lung = test system: NCI-H23 lung
SK-MEL-28 melanoma = test system: SK-MEL-28 melanoma
SF-539 CNS = test system: SF-539 CNS
NCI/ADR-RES ovarian = test system: NCI/ADR-RES ovarian
MDA-MB-435 = test system: MDA-MB-435
TK-10 renal = test system: TK-10 renal
HOP-92 NSCLC = test system: HOP-92 NSCLC
SNB-19 CNS = test system: SNB-19 CNS
OVCAR-5 ovarian = test system: OVCAR-5 ovarian
EKVX NSCLC = test system: EKVX NSCLC
SW-620 colon = test system: SW-620 colon
SNB-75 CNS = test system: SNB-75 CNS
SF-295 CNS = test system: SF-295 CNS
SK-MEL-2 melanoma = test system: SK-MEL-2 melanoma
HS 578T breast = test system: HS 578T breast
HCT-15 colon = test system: HCT-15 colon
IGROV1 ovarian = test system: IGROV1 ovarian
DU-145 prostate = test system: DU-145 prostate
OVCAR-3 ovarian = test system: OVCAR-3 ovarian
SK-MEL-5 melanoma = test system: SK-MEL-5 melanoma
BT-549 breast = test system: BT-549 breast
OVCAR-8 ovarian = test system: OVCAR-8 ovarian
ACHN renal = test system: ACHN renal
M14 melanoma = test system: M14 melanoma
T-47D breast = test system: T-47D breast
NCI-H226 lung = test system: NCI-H226 lung
RPMI-8226 leukemia = test system: RPMI-8226 leukemia
HCT-116 colon = test system: HCT-116 colon
SF-268 CNS = test system: SF-268 CNS
CAKI-1 renal = test system: CAKI-1 renal
LOX IMVI melanoma = test system: LOX IMVI melanoma
UACC-62 melanoma = test system: UACC-62 melanoma
HCC-2998 colon = test system: HCC-2998 colon
SR leukemia = test system: SR leukemia
786-0 renal = test system: 786-0 renal
NCI-H522 lung = test system: NCI-H522 lung
PC-3 prostate = test system: PC-3 prostate
KM12 colon = test system: KM12 colon
MALME-3M melanoma = test system: MALME-3M melanoma
MCF7 breast = test system: MCF7 breast
MOLT-4 leukemia = test system: MOLT-4 leukemia
OVCAR-4 ovarian = test system: OVCAR-4 ovarian
HL-60(TB) leukemia = test system: HL-60(TB) leukemia
SN12C renal = test system: SN12C renal
NCI-H460 lung = test system: NCI-H460 lung
U251 CNS = test system: U251 CNS
HOP-62 NSCLC = test system: HOP-62 NSCLC
K-562 leukemia = test system: K-562 leukemia
RXF 393 renal = test system: RXF 393 renal

COc1cccc(-n2ncc3c(N/N=C/c4cccc(F)c4)ncnc32)c1
13.5 µM: TGI (OVCAR-4 ovarian)
> 19.2 µM: TGI (T-47D breast)
9.04 µM: TGI (U251 CNS)
18.9 µM: TGI (TK-10 renal)
11.3 µM: TGI (HCT-116 colon)
14.2 µM: TGI (HOP-92 NSCLC)
15.6 µM: TGI (MDA-MB-231 breast) | TGI (HS 578T breast)
9.14 µM: TGI (SK-OV-3 ovarian)
20.8 µM: TGI (786-0 renal)
> 16.4 µM: TGI (UO-31 renal)
11.4 µM: TGI (HOP-62 NSCLC)
12.4 µM: TGI (SNB-75 CNS)
> 25 µM: TGI (CCRF-CEM leukemia) | TGI (HT29 colon) | TGI (UACC-257 melanoma) | TGI (NCI-H23 lung) | TGI (SK-MEL-28 melanoma) | TGI (SF-539 CNS) | TGI (NCI/ADR-RES ovarian) | TGI (MDA-MB-435) | TGI (SNB-19 CNS) | TGI (OVCAR-5 ovarian) | TGI (EKVX NSCLC) | TGI (SW-620 colon) | TGI (SK-MEL-2 melanoma) | TGI (HCT-15 colon) | TGI (IGROV1 ovarian) | TGI (SK-MEL-5 melanoma) | TGI (BT-549 breast) | TGI (M14 melanoma) | TGI (RPMI-8226 leukemia) | TGI (LOX IMVI melanoma) | TGI (UACC-62 melanoma) | TGI (HCC-2998 colon) | TGI (SR leukemia) | TGI (NCI-H522 lung) | TGI (PC-3 prostate) | TGI (KM12 colon) | TGI (MALME-3M melanoma) | TGI (MCF7 breast) | TGI (MOLT-4 leukemia) | TGI (HL-60(TB) leukemia) | TGI (K-562 leukemia)
inactive: GI50 (SK-OV-3 ovarian) 4.8 µM | GI50 (CCRF-CEM leukemia) > 25 µM | GI50 (HT29 colon) 12.9 µM | GI50 (A498 renal) 5.13 µM | GI50 (MDA-MB-231 breast) 5.78 µM | GI50 (UO-31 renal) 6.73 µM | GI50 (UACC-257 melanoma) 16.4 µM | GI50 (COLO 205 colon) 8.06 µM | GI50 (A549 NSCLC) 4.94 µM | GI50 (NCI-H23 lung) 11.3 µM | GI50 (SK-MEL-28 melanoma) 8.64 µM | GI50 (SF-539 CNS) 12.5 µM | GI50 (NCI/ADR-RES ovarian) 8.11 µM | GI50 (MDA-MB-435) 10.1 µM | GI50 (TK-10 renal) 6.93 µM | GI50 (HOP-92 NSCLC) 5.59 µM | GI50 (SNB-19 CNS) 12.3 µM | GI50 (OVCAR-5 ovarian) > 23.2 µM | GI50 (EKVX NSCLC) 10.2 µM | GI50 (SW-620 colon) 16.8 µM | GI50 (SNB-75 CNS) 5.05 µM | GI50 (SF-295 CNS) 8.19 µM | GI50 (SK-MEL-2 melanoma) 12.3 µM | GI50 (HS 578T breast) 6.02 µM | GI50 (HCT-15 colon) 14.9 µM | GI50 (IGROV1 ovarian) 13.9 µM | GI50 (DU-145 prostate) 9.01 µM | GI50 (OVCAR-3 ovarian) 5.42 µM | GI50 (SK-MEL-5 melanoma) 18.8 µM | GI50 (BT-549 breast) 19.5 µM | GI50 (OVCAR-8 ovarian) 7.16 µM | GI50 (ACHN renal) 7.54 µM | GI50 (M14 melanoma) 11.3 µM | GI50 (T-47D breast) 6.41 µM | GI50 (NCI-H226 lung) 9.16 µM | GI50 (RPMI-8226 leukemia) > 25 µM | GI50 (HCT-116 colon) 5.76 µM | GI50 (SF-268 CNS) 8.46 µM | GI50 (CAKI-1 renal) 8.59 µM | GI50 (LOX IMVI melanoma) 9.44 µM | GI50 (UACC-62 melanoma) 11.1 µM | GI50 (HCC-2998 colon) 20.3 µM | GI50 (SR leukemia) 13.6 µM | GI50 (786-0 renal) 7.31 µM | GI50 (NCI-H522 lung) > 15.6 µM | GI50 (PC-3 prostate) 9.86 µM | GI50 (KM12 colon) 14.7 µM | GI50 (MALME-3M melanoma) 7.96 µM | GI50 (MCF7 breast) > 14.6 µM | GI50 (MOLT-4 leukemia) > 25 µM | GI50 (OVCAR-4 ovarian) 6.28 µM | GI50 (HL-60(TB) leukemia) > 25 µM | GI50 (SN12C renal) 6.74 µM | GI50 (NCI-H460 lung) 6.05 µM | GI50 (U251 CNS) 4.66 µM | GI50 (HOP-62 NSCLC) 5.87 µM | GI50 (K-562 leukemia) > 25 µM | GI50 (RXF 393 renal) 5.57 µM
10.1 µM: TGI (OVCAR-3 ovarian)
18 µM: TGI (OVCAR-8 ovarian)
11.2 µM: TGI (A498 renal)
> 22 µM: TGI (COLO 205 colon) | TGI (SF-268 CNS)
> 20.3 µM: TGI (ACHN renal)
10.6 µM: TGI (A549 NSCLC)
> 19.6 µM: TGI (SN12C renal)
> 24.1 µM: TGI (DU-145 prostate)
12.8 µM: TGI (NCI-H460 lung)
24.5 µM: TGI (NCI-H226 lung)
> 17.6 µM: TGI (SF-295 CNS)
12.7 µM: TGI (RXF 393 renal)
24.6 µM: TGI (CAKI-1 renal)
